In this assay the target is EP2 subtype of the human PGE2 receptor (hEP2 receptor) (Homo sapiens, UniProt P43116). Kind of assay: cAMP antagonism test, human prostaglandin E2 (subtype EP2) receptor signal. The assay is classed as cell-based. The essentials: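 Cells (625000 cells/ml, mixed with cAMP-d2) were preincubated 20 min at RT with compound ([…]). They were then stimulated 60 min at RT with a 3× PGE2 solution (1.5 nM) in PBS-IBMX and lysed for 20 min. cAMP was read by HTRF as the 665/620 nm ratio ×10000, with antagonism seen as a rise in FRET signal.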
Sequence of EP2 subtype of the human PGE2 receptor (hEP2 receptor) (P43116 whole entry): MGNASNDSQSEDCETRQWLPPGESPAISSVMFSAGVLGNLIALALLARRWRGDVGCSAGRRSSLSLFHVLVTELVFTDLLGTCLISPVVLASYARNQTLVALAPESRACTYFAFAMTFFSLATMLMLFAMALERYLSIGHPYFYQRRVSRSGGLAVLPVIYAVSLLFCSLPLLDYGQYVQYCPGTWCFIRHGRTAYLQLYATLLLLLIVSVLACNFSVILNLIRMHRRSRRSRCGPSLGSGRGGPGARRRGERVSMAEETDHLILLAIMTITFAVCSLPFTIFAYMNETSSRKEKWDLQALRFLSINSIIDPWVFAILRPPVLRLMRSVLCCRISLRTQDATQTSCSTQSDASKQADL

pIC50: −log10 of the molar value.

For `COCCNC(=O)c1ccc2nn(CC3CCN(C(=O)c4ccc(-c5ccc(OC)cc5F)cc4F)CC3)cc2c1C` [Example E177, 2-({1-[(2′,3-difluoro-4′-methoxybiphenyl-4-yl)carbonyl]piperidin-4-yl}methyl)-N-(2-methoxyethyl)-4-methyl-2H-indazole-5-carboxamide], the pIC50 is below 7.30.
Compound `COCCNC(=O)c1ccc2nn(CC3CCN(C(=O)c4ccc(OC(F)F)cc4)CC3)cc2c1C` [Example E178, 2-({1-[4-(difluoromethoxy)benzoyl]piperidin-4-yl}methyl)-N-(2-methoxyethyl)-4-methyl-2H-indazole-5-carboxamide] gave a negative-log IC50 (pIC50) below 7.30.
In turn, `COCCNC(=O)c1ccc2nn(CC3CCN(C(=O)c4ccc(Oc5ccccc5F)cc4)CC3)cc2c1C` [Example E179, 2-({1-[4-(2-fluorophenoxy)benzoyl]piperidin-4-yl}methyl)-N-(2-methoxyethyl)-4-methyl-2H-indazole-5-carboxamide] had a pIC50 below 7.30.
The same measure for `COCCNC(=O)c1ccc2nn(CC3CCN(C(=O)c4ccc(-c5ccc(C#N)cc5C)cc4)CC3)cc2c1C` [Example E180, 2-({1-[(4′-cyano-2′-methylbiphenyl-4-yl)carbonyl]piperidin-4-yl}methyl)-N-(2-methoxyethyl)-4-methyl-2H-indazole-5-carboxamide]: below 7.30; for `COCCNC(=O)c1ccc2nn(CC3CCN(C(=O)c4ccc(-c5ccc(Cl)cn5)cc4)CC3)cc2c1C` [Example E181, 2-({1-[4-(5-chloropyridin-2-yl)benzoyl]piperidin-4-yl}methyl)-N-(2-methoxyethyl)-4-methyl-2H-indazole-5-carboxamide]: below 7.30; for `COCCNC(=O)c1ccc2nn(CC3CCN(C(=O)c4ccc(-c5cccc(C(F)(F)F)n5)cc4)CC3)cc2c1C` [Example E182, N-(2-methoxyethyl)-4-methyl-2-[(1-{4-[6-(trifluoromethyl)pyridin-2-yl]benzoyl}-piperidin-4-yl)methyl]-2H-indazole-5-carboxamide]: below 7.30.
The result for `COCCNC(=O)c1ccc2nn(CC3CCN(C(=O)c4ccc(-c5ccc(OC)cc5C)cc4)CC3)cc2c1C` [Example E183, N-(2-methoxyethyl)-2-({1-[(4′-methoxy-2′-methylbiphenyl-4-yl)carbonyl]piperidin-4-yl}methyl)-4-methyl-2H-indazole-5-carboxamide] reads below 7.30; that for `COCCNC(=O)c1ccc2nn(CC3CCN(C(=O)c4ccc(-c5ccc(Cl)cc5C)cc4)CC3)cc2c1C` [Example E184, 2-({1-[(4′-chloro-2′-methylbiphenyl-4-yl)carbonyl]piperidin-4-yl}methyl)-N-(2-methoxyethyl)-4-methyl-2H-indazole-5-carboxamide], below 7.30.
`COCCNC(=O)c1ccc2nn(CC3CCN(C(=O)c4ccc(-c5ccc(C(C)(C)C#N)cc5)cc4)CC3)cc2c1C` [Example E185, 2-[(1-{[4′-(2-cyanopropan-2-yl)biphenyl-4-yl]carbonyl}piperidin-4-yl)methyl]-N-(2-methoxyethyl)-4-methyl-2H-indazole-5-carboxamide] showed a pIC50 below 7.30.
The result for `COCCNC(=O)c1ccc2nn(CC3CCN(C(=O)c4ccc(-c5ccc(OC)cn5)cc4)CC3)cc2c1C` [Example E186, N-(2-methoxyethyl)-2-({1-[4-(5-methoxypyridin-2-yl)benzoyl]piperidin-4-yl}methyl)-4-methyl-2H-indazole-5-carboxamide] reads below 7.30.
In turn, `COCCNC(=O)c1ccc2nn(CC3CCN(C(=O)c4ccc(-c5ccc(C(F)(F)F)nc5)cc4)CC3)cc2c1C` [Example E187, N-(2-methoxyethyl)-4-methyl-2-[(1-{4-[6-(trifluoromethyl)pyridin-3-yl]benzoyl}-piperidin-4-yl)methyl]-2H-indazole-5-carboxamide] showed a pIC50 below 7.30.
Turning to `COCCNC(=O)c1ccc2nn(CC3CCN(C(=O)c4ccc(-c5ccc(OC)nc5)cc4)CC3)cc2c1C` [Example E188, N-(2-methoxyethyl)-2-({1-[4-(6-methoxypyridin-3-yl)benzoyl]piperidin-4-yl}methyl)-4-methyl-2H-indazole-5-carboxamide], the pIC50 was below 7.30.
With `COCCNC(=O)c1ccc2nn(CC3CCN(C(=O)c4ccc(-c5ccc(F)cc5C)cc4)CC3)cc2c1C` [Example E189, 2-({1-[(4′-fluoro-2′-methylbiphenyl-4-yl)carbonyl]piperidin-4-yl}methyl)-N-(2-methoxyethyl)-4-methyl-2H-indazole-5-carboxamide], the pIC50 was below 7.30.
The result for `COCCNC(=O)c1ccc2nn(CC3CCN(C(=O)c4ccc(-c5ccc(C)nc5)cc4)CC3)cc2c1C` [Example E190, N-(2-methoxyethyl)-4-methyl-2-({1-[4-(6-methylpyridin-3-yl)benzoyl]piperidin-4-yl}methyl)-2H-indazole-5-carboxamide] reads below 7.30; that for `COCCNC(=O)c1ccc2nn(CC3CCN(C(=O)c4ccc(-c5cccc(OC)n5)cc4)CC3)cc2c1C` [Example E191, N-(2-methoxyethyl)-2-({1-[4-(6-methoxypyridin-2-yl)benzoyl]piperidin-4-yl}methyl)-4-methyl-2H-indazole-5-carboxamide], below 7.30; that for `COCCNC(=O)c1ccc2nn(CC3CCN(C(=O)c4ccc(-c5ccc(F)cc5OC)cc4)CC3)cc2c1C` [Example E193, 2-({1-[(4′-fluoro-2′-methoxybiphenyl-4-yl)carbonyl]piperidin-4-yl}methyl)-N-(2-methoxyethyl)-4-methyl-2H-indazole-5-carboxamide], below 7.30.
Take `COCCNC(=O)c1ccc2nn(CC3CCN(C(=O)c4ccc(-c5ccc(Cl)cc5OC)cc4)CC3)cc2c1C` [Example E194, 2-({1-[(4′-chloro-2′-methoxybiphenyl-4-yl)carbonyl]piperidin-4-yl}methyl)-N-(2-methoxyethyl)-4-methyl-2H-indazole-5-carboxamide]: the pIC50 was below 7.30.
`COCCNC(=O)c1ccc2nn(CC3CCN(C(=O)c4ccc(-c5cnc(C(F)(F)F)nc5)cc4)CC3)cc2c1C` [Example E195, N-(2-methoxyethyl)-4-methyl-2-[(1-{4-[2-(trifluoromethyl)pyrimidin-5-yl]benzoyl}-piperidin-4-yl)methyl]-2H-indazole-5-carboxamide] had a pIC50 below 7.30.
The result for `COCCNC(=O)c1ccc2nn(CC3CCN(C(=O)c4ccc(-c5ccc(Cl)cc5F)cc4)CC3)cc2c1C` [Example E196, 2-({1-[(4′-chloro-2′-fluorobiphenyl-4-yl)carbonyl]piperidin-4-yl}methyl)-N-(2-methoxy-ethyl)-4-methyl-2H-indazole-5-carboxamide] reads below 7.30.
The result for `COCCNC(=O)c1ccc2nn(CC3CCN(C(=O)c4ccc(-c5ccc(F)cc5Cl)cc4)CC3)cc2c1C` [Example E197, 2-({1-[(2′-chloro-4′-fluorobiphenyl-4-yl)carbonyl]piperidin-4-yl}methyl)-N-(2-methoxy-ethyl)-4-methyl-2H-indazole-5-carboxamide] reads below 7.30; that for `COCCNC(=O)c1ccc2nn(CC3CCN(C(=O)c4ccc(-c5cncc(Cl)c5)cc4)CC3)cc2c1C` [Example E198, 2-({1-[4-(5-chloropyridin-3-yl)benzoyl]piperidin-4-yl}methyl)-N-(2-methoxyethyl)-4-methyl-2H-indazole-5-carboxamide], below 7.30; that for `COCCNC(=O)c1ccc2nn(CC3CCN(C(=O)c4ccc(-c5cncc(F)c5)cc4)CC3)cc2c1C` [Example E199, 2-({1-[4-(5-fluoropyridin-3-yl)benzoyl]piperidin-4-yl}methyl)-N-(2-methoxyethyl)-4-methyl-2H-indazole-5-carboxamide], below 7.30.
Consider `COCCNC(=O)c1ccc2nn(CC3CCN(C(=O)c4ccc(-c5cncc(C(F)(F)F)c5)cc4)CC3)cc2c1C` [Example E200, N-(2-methoxyethyl)-4-methyl-2-[(1-{4-[5-(trifluoromethyl)pyridin-3-yl]benzoyl}-piperidin-4-yl)methyl]-2H-indazole-5-carboxamide], for which the pIC50 is below 7.30.
The same measure for `COCCNC(=O)c1ccc2nn(CC3CCN(C(=O)c4ccc(-c5ccc(C(C)(C)O)cc5)cc4)CC3)cc2c1C` [Example E201, 2-[(1-{[4′-(2-hydroxypropan-2-yl)biphenyl-4-yl]carbonyl}piperidin-4-yl)methyl]-N-(2-methoxyethyl)-4-methyl-2H-indazole-5-carboxamide]: below 7.30.
The same measure for `COCCNC(=O)c1ccc2nn(CC3CCN(C(=O)c4ccc(-c5cc(F)cc(F)c5)cc4)CC3)cc2c1C` [Example E202, 2-({1-[(3′,5′-difluorobiphenyl-4-yl)carbonyl]piperidin-4-yl}methyl)-N-(2-methoxy-ethyl)-4-methyl-2H-indazole-5-carboxamide]: below 7.30; for `COCCNC(=O)c1ccc2nn(CC3CCN(C(=O)c4ccc(-c5ccc(F)cc5)c(C)c4)CC3)cc2c1C` [Example E203, 2-({1-[(4′-fluoro-2-methylbiphenyl-4-yl)carbonyl]piperidin-4-yl}methyl)-N-(2-methoxyethyl)-4-methyl-2H-indazole-5-carboxamide]: below 7.30; for `COCCNC(=O)c1ccc2nn(CC3CCN(C(=O)c4ccc(-c5cc(F)cc(F)c5)c(C)c4)CC3)cc2c1C` [Example E204, 2-({1-[(3′,5′-difluoro-2-methylbiphenyl-4-yl)carbonyl]piperidin-4-yl}methyl)-N-(2-methoxyethyl)-4-methyl-2H-indazole-5-carboxamide]: below 7.30.
On to `COCCNC(=O)c1ccc2nn(CC3CCN(C(=O)c4ccc(-c5cccnc5)c(C)c4)CC3)cc2c1C` [Example E205, N-(2-methoxyethyl)-4-methyl-2-({1-[3-methyl-4-(3-pyridyl)benzoyl]piperidin-4-yl}-methyl)-2H-indazole-5-carboxamide], for which the pIC50 was below 7.30.

Source of the values: patent US9655887B2, “Pharmaceutical composition and the use thereof, and application regime of said pharmaceutical composition for on-demand contraception” (BAYER PHARMA AKTIENGESELLSCHAFT, priority 2013, dated 2017).
